Reference: US7875647B2, “Heteroaryl-pyrazole derivatives as cannabinoid CB1 receptor antagonists” (Green Cross Corporation, priority 2006, dated 2011)

Biological target: T1, Cannabinoid-1 receptor (CB1R) (Rattus norvegicus, UniProt P20272)
T1 construct: The tissue obtained from the brain of SD rats was homogenized; from tissue; host or cells: brain of SD rats (membrane pellet of the homogenate)
Test: Cannabinoid-1 receptor (CB1R) binding affinity assay ([3H]CP-55940, rat CB-1 receptor binding protocol)
Settings: IC50(nM), brain tissue of SD rats, [3H]CP-55940, 30° C. 60 min
Experimental: The tissue obtained from the brain of SD rats was homogenized with a Dounce homogenate system in TME (50 mM Tris, 3 mM MgCl2 and 1 mM EDTA, pH 7.4) at 4° C., and the homogenate was centrifuged at 48,000 g for 30 min. at 4° C. The pellet was resuspended in 5 ml of TME and the suspension was divided into aliquots and stored at −70° C. until its use in the following assay.
The tissue concentrations were determined by Bradford protein analysis, and 148 μl of brain tissue of the required concentration was added to the plate. The plate was covered and placed in a 30° C. incubator for 60 min, and then transformed on GF/B filtermat pretreated in polyethylenimine (PEI) using a cell harvester. Each filter was washed five times and dried at 60° C. for 1 hr. Then, the degree of radioactivity retained by the filter was measured using Wallac Microbeta™ (PerkinElmer Life Sciences, Inc., Massachusetts, U.S.A.) and the activity of the compound for inhibiting CB1 receptor was determined therefrom.

T1 sequence (P20272 whole entry): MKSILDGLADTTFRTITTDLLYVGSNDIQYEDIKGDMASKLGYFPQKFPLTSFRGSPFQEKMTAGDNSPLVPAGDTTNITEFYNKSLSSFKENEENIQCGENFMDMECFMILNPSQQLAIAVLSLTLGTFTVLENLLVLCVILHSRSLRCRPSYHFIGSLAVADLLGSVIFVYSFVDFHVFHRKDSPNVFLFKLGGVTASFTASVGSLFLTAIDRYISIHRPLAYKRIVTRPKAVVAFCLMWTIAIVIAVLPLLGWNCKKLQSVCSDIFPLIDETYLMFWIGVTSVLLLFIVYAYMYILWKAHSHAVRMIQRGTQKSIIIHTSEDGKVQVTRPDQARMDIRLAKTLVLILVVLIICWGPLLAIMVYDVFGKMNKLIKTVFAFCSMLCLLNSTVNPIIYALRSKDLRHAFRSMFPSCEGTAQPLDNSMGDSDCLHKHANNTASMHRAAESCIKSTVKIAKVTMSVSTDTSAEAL

Row | SMILES | IC50 [nM]
1 | CCOC(C)(C)c1nnc(-c2nn(-c3ccc(Cl)cc3Cl)c(-c3ccc(Cl)cc3)c2C)o1 [Example 116, 2-(5-(4-chlorophenyl)-1-(2,4-dichlorophenyl)-4-methyl-1H-pyrazol-3-yl)-5-(2-ethoxypropan-2-yl)-1,3,4-oxadiazole] | 23.9
2 | COc1ccc(C2(c3nnc(-c4nn(-c5ccc(Cl)cc5Cl)c(-c5ccc(Cl)cc5)c4C)o3)CC2)cc1 [Example 129, 2-(5-(4-chlorophenyl)-1-(2,4-dichlorophenyl)-4-methyl-1H-pyrazol-3-yl)-5-(1-(4-methoxyphenyl)cyclopropyl)-1,3,4-oxadiazole] | 9.46

Same assay, conditions: brain tissue of SD rats, [3H]CP-55940, 30° C. 60 min; read-out: IC50

Row | SMILES | IC50 [nM]
3 | Cc1c(-c2nnc(C(C)CC3CCC3)o2)nn(-c2ccc(Cl)cc2Cl)c1-c1ccc(Cl)cc1 (centres unmarked) [Example 54, 2-(5-(4-chlorophenyl)-1-(2,4-dichlorophenyl)-4-methyl-1H-pyrazol-3-yl)-5-(1-cyclobutylpropan-2-yl)-1,3,4-oxadiazole] | 11.2
4 | CCc1c(-c2nnc(CC3CCCCC3)o2)nn(-c2ccc(Cl)cc2Cl)c1-c1ccc(Br)cc1 [Example 55, 2-(5-(4-bromophenyl)-1-(2,4-dichlorophenyl)-4-ethyl-1H-pyrazol-3-yl)-5-(cyclohexylmethyl)-1,3,4-oxadiazole] | 10.3
5 | Cc1c(-c2nnc(CC3CCCCC3)o2)nn(-c2ccc(Cl)cc2Cl)c1-c1ccc(Br)cc1 [Example 56, 2-(5-(4-bromophenyl)-1-(2,4-dichlorophenyl)-4-methyl-1H-pyrazol-3-yl)-5-(cyclohexylmethyl)-1,3,4-oxadiazole] | 37.6
6 | Cc1c(-c2nnc(C(C)C3CCCC3)o2)nn(-c2ccc(Cl)cc2Cl)c1-c1ccc(Cl)cc1 (centres unmarked) [Example 61, 2-(5-(4-chlorophenyl)-1-(2,4-dichlorophenyl)-4-methyl-1H-pyrazol-3-yl)-5-(1-cyclopentylethyl)-1,3,4-oxadiazole] | 22.2
7 | Cc1c(-c2nnc(C(C)C3CCCCC3)o2)nn(-c2ccc(Cl)cc2Cl)c1-c1ccc(Cl)cc1 (centres unmarked) [Example 62, 2-(5-(4-chlorophenyl)-1-(2,4-dichlorophenyl)-4-methyl-1H-pyrazol-3-yl)-5-(1-cyclohexylethyl)-1,3,4-oxadiazole] | 51.7
8 | Cc1c(-c2nnc(C(C)(C)C3CCCC3)o2)nn(-c2ccc(Cl)cc2Cl)c1-c1ccc(Cl)cc1 [Example 63, 2-(5-(4-chlorophenyl)-1-(2,4-dichlorophenyl)-4-methyl-1H-pyrazol-3-yl)-5-(2-cyclopentylpropan-2-yl)-1,3,4-oxadiazole] | 19.1
9 | Cc1c(-c2nnc(C(C)(C)C3CCCCC3)o2)nn(-c2ccc(Cl)cc2Cl)c1-c1ccc(Cl)cc1 [Example 64, 2-(5-(4-chlorophenyl)-1-(2,4-dichlorophenyl)-4-methyl-1H-pyrazol-3-yl)-5-(2-cyclohexylpropan-2-yl)-1,3,4-oxadiazole] | 15.2
10 | Cc1c(-c2nnc(C3(C)CC3(Cl)Cl)o2)nn(-c2ccc(Cl)cc2Cl)c1-c1ccc(Cl)cc1 (centres unmarked) [Example 65, 2-(5-(4-chlorophenyl)-1-(2,4-dichlorophenyl)-4-methyl-1H-pyrazol-3-yl)-5-(2,2-dichloro-1-methylcyclopropyl)-1,3,4-oxadiazole] | 12.4
11 | Cc1c(-c2nnc(C3(c4ccc(Cl)cc4)CC3)o2)nn(-c2ccc(Cl)cc2Cl)c1-c1ccc(Cl)cc1 [Example 67, 2-(5-(4-chlorophenyl)-1-(2,4-dichlorophenyl)-4-methyl-1H-pyrazol-3-yl)-5-(1-(4-chlorophenyl)cyclopropyl)-1,3,4-oxadiazole] | 8.61
12 | Cc1c(-c2nnc(C3(c4ccccc4)CC3)o2)nn(-c2ccc(Cl)cc2Cl)c1-c1ccc(Cl)cc1 [Example 71, 2-(5-(4-chlorophenyl)-1-(2,4-dichlorophenyl)-4-methyl-1H-pyrazol-3-yl)-5-(1-phenylcyclopropyl)-1,3,4-oxadiazole] | 11
13 | Cc1c(-c2nnc(C(C)(C)Oc3ccccn3)o2)nn(-c2ccc(Cl)cc2Cl)c1-c1ccc(Cl)cc1 [Example 80, 2-(5-(4-chlorophenyl)-1-(2,4-dichlorophenyl)-4-methyl-1H-pyrazol-3-yl)-5-(2-(pyridin-2-yloxy)propan-2-yl)-1,3,4-oxadiazole] | 36.1
14 | C=CCOCC(C)(C)c1nnc(-c2nn(-c3ccc(Cl)cc3Cl)c(-c3ccc(Cl)cc3)c2C)o1 [Example 97, 2-(1-(allyloxy)-2-methylpropan-2-yl)-5-(5-(4-chlorophenyl)-1-(2,4-dichlorophenyl)-4-methyl-1H-pyrazol-3-yl)-1,3,4-oxadiazole] | 15.7
15 | COC(C)(C)c1nnc(-c2nn(-c3ccc(Cl)cc3Cl)c(-c3ccc(Cl)cc3)c2C)o1 [Example 98, 2-(5-(4-chlorophenyl)-1-(2,4-dichlorophenyl)-4-methyl-1H-pyrazol-3-yl)-5-(2-methoxypropan-2-yl)-1,3,4-oxadiazole] | 33.7
16 | Cc1c(-c2nnc(C3(c4ccc(Cl)cc4)CCC3)o2)nn(-c2ccc(Cl)cc2Cl)c1-c1ccc(Cl)cc1 [Example 110, 2-(5-(4-chlorophenyl)-1-(2,4-dichlorophenyl)-4-methyl-1H-pyrazol-3-yl)-5-(1-(4-chlorophenyl)cyclobutyl)-1,3,4-oxadiazole] | 13
17 | CCc1c(-c2nnc(C3(c4ccc(Cl)cc4)CC3)o2)nn(-c2ccc(Cl)cc2Cl)c1-c1ccc(Br)cc1 [Example 111, 2-(5-(4-bromophenyl)-1-(2,4-dichlorophenyl)-4-ethyl-1H-pyrazol-3-yl)-5-(1-(4-chlorophenyl)cyclopropyl)-1,3,4-oxadiazole] | 3.96
18 | Cc1c(-c2nnc(C3(c4ccc(Cl)cc4)CC3)o2)nn(-c2ccccc2Cl)c1-c1ccc(Cl)cc1 [Example 112, 2-(1-(2-chlorophenyl)-5-(4-chlorophenyl)-4-methyl-1H-pyrazol-3-yl)-5-(1-(4-chlorophenyl)cyclopropyl)-1,3,4-oxadiazole] | 7.4
19 | Cc1c(-c2nnc(C3(c4ccc(Cl)cc4)CC3)o2)nn(-c2ccc(Cl)cc2)c1-c1ccc(Cl)cc1 [Example 119, 2-(1,5-Bis(4-chlorophenyl)-4-methyl-1H-pyrazol-3-yl)-5-(1-(4-chlorophenyl)cyclopropyl)-1,3,4-oxadiazole] | 550
20 | Cc1c(-c2nnc(C3(c4ccc(Cl)cc4Cl)CC3)o2)nn(-c2ccc(Cl)cc2Cl)c1-c1ccc(Cl)cc1 [Example 130, 2-(5-(4-chlorophenyl)-1-(2,4-dichlorophenyl)-4-methyl-1H-pyrazol-3-yl)-5-(1-(2,4-dichlorophenyl)cyclopropyl)-1,3,4-oxadiazole] | 8.14
21 | Cc1ccc(C2(c3nnc(-c4nn(-c5ccc(Cl)cc5Cl)c(-c5ccc(Cl)cc5)c4C)o3)CC2)cc1 [Example 131, 2-(5-(4-chlorophenyl)-1-(2,4-dichlorophenyl)-4-methyl-1H-pyrazol-3-yl)-5-(1-p-tolylcyclopropyl)-1,3,4-oxadiazole] | 7.26
22 | CCc1c(-c2nnc(C3(c4ccc(Cl)cc4)CC3)o2)nn(-c2ccc(Cl)cc2Cl)c1-c1ccc(Cl)cc1 [Example 133, 2-(5-(4-chlorophenyl)-1-(2,4-dichlorophenyl)-4-ethyl-1H-pyrazol-3-yl)-5-(1-(4-chlorophenyl)cyclopropyl)-1,3,4-oxadiazole] | 5.47
23 | Cc1c(-c2nnc(C3(C(F)(F)F)CCC3)o2)nn(-c2ccc(Cl)cc2Cl)c1-c1ccc(Cl)cc1 [Example 135, 2-(5-(4-chlorophenyl)-1-(2,4-dichlorophenyl)-4-methyl-1H-pyrazol-3-yl)-5-(1-(trifluoromethyl)cyclobutyl)-1,3,4-oxadiazole] | 16.3
24 | Cc1c(-c2nnc(CC(F)(F)F)o2)nn(-c2ccc(Cl)cc2Cl)c1-c1ccc(Cl)cc1 [Example 136, 2-(5-(4-chlorophenyl)-1-(2,4-dichlorophenyl)-4-methyl-1H-pyrazol-3-yl)-5-(2,2,2-trifluoroethyl)-1,3,4-oxadiazole] | 74.2
25 | Cc1c(-c2nnc(C3(c4ccc(Cl)cc4)CCC3)o2)nn(-c2cccc(Cl)c2Cl)c1-c1ccc(Cl)cc1 [Example 137, 2-(5-(4-chlorophenyl)-1-(2,3-dichlorophenyl)-4-methyl-1H-pyrazol-3-yl)-5-(1-(4-chlorophenyl)cyclobutyl)-1,3,4-oxadiazole] | 141
26 | COc1ccc(-c2c(C)c(-c3nnc(C4(c5ccc(Cl)cc5)CC4)o3)nn2-c2ccc(Cl)cc2Cl)cc1 [Example 138, 2-(1-(4-chlorophenyl)cyclopropyl)-5-(1-(2,4-dichlorophenyl)-5-(4-methoxyphenyl)-4-methyl-1H-pyrazol-3-yl)-1,3,4-oxadiazole] | 10
27 | CCc1c(-c2nnc(C3(c4ccc(Cl)cc4)CC3)o2)nn(-c2ccccc2Cl)c1-c1ccc(Cl)cc1 [Example 144, 2-(1-(2-chlorophenyl)-5-(4-chlorophenyl)-4-ethyl-1H-pyrazol-3-yl)-5-(1-(4-chlorophenyl)cyclopropyl)-1,3,4-oxadiazole] | 2.16
28 | CCc1c(-c2nnc(C3(c4ccc(Cl)cc4)CCC3)o2)nn(-c2ccccc2Cl)c1-c1ccc(Cl)cc1 [Example 147, 2-(1-(2-chlorophenyl)-5-(4-chlorophenyl)-4-ethyl-1H-pyrazol-3-yl)-5-(1-(4-chlorophenyl)cyclobutyl)-1,3,4-oxadiazole] | 5.75
29 | CCc1c(-c2nnc(C3(c4ccccc4)CC3)o2)nn(-c2ccc(Cl)cc2Cl)c1-c1ccc(Cl)cc1 [Example 150, 2-(5-(4-chlorophenyl)-1-(2,4-dichlorophenyl)-4-ethyl-1H-pyrazol-3-yl)-5-(1-phenylcyclopropyl)-1,3,4-oxadiazole] | 6.05
